System: Hs578T complex spheroid growth, percent test/control
Experiment: Anticancer human tumor Hs578T cell line growth inhibition [AhR];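 also: luminescent viability signal as a proxy for spheroid growth; spheroids exposed to agents for one week after three days of growth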
Conditions: for IC50: curve of first compound; for viability, T/C: stronger effect = lower value
From the text: Multicellular complex tumor spheroid response to aryl hydrocarbon receptor antagonists in combination with a variety of drugs and investigational agents in selected tumor cell lines
The current study was undertaken to assess response to aryl hydrocarbon receptor antagonists in combination with standard-of-care drugs and investigational agents in solid tumor complex spheroid models. Complex spheroids include a stromal component modeled by human endothelial cells (HUVEC) and fibroblasts modeled by human mesenchymal stem cells (MSCs). The concentration ranges selected for each drug and investigational agent were based upon clinically achievable concentrations if the clinical Cmax of the agent was known.
Compounds. The drugs and investigational agents: BAY 2416964 (NSC825713), GNF351 (NSC835774), CH-223191 (NSC835775), CPI-455 (NSC825282), aza-TdCyd (NSC777586), decitabine (NSC127716), belinostat (NSC758774), entinostat (NSC756642), pevonedistat (NSC761192), tazemetostat (NSC777109), talazoparib (NSC765396), olaparib (NSC753686), selinexor (NSC780203), nedisertib (M3814, NSC802822), bortezomib (NSC756655), venetoclax (NSC766270), doxorubicin (NSC123127), elimusertib (BAY189344, NSC800525), ceralasertib (AZD6738, NSC777638), TAK-243 (NSC785004), alisertib (NSC759677), etoposide (NSC141540), topotecan (NSC609699), eribulin (NSC707389), gemcitabine (NSC613327), carboplatin (NSC241240), cisplatin (NSC119875), and SN-38 (NSC673596) were obtained from the National Cancer Institute (NCI) Developmental Therapeutics Program Chemical Repository (32). The FDA-approved anticancer drug set is available from the Developmental Therapeutics Program at https://dtp.cancer.gov/organization/dscb/obtaining/available plates.htm. […] The stock solutions were prepared in dimethyl sulfoxide (DMSO, Sigma-Aldrich, St. Louis, MO, cat. D2650), except for the platinum compounds which were prepared in saline (Quality Biological, Gaithersburg, MD, cat. 114-055-101), at 800-fold the tested concentration and stored at -70 degrees C prior to their use. All drugs and investigational agents were tested over a range starting from a high concentration at or near the clinical Cmax and decreasing in half-log increments. If the clinical Cmax for an agent had not been determined, the highest concentration tested was 10 microM (Table 1).
Cell Culture. All cells were maintained in an incubator at 37 degrees C and 5% CO2 with 95% humidity. The PDC lines were cultured according to standard operating procedures established by the NCI PDMR (https://pdmr.cancer.gov). Briefly, all PDCs were thawed and cultured in Matrigel-coated flasks prepared with a working solution of 1X Ham's F-12 nutrient mix, without supplementation (Invitrogen, Waltham, MA, cat. 11765054), 100 U/mL penicillin-streptomycin (Invitrogen, cat. 15140122), and 2.5% Matrigel (Corning Inc., Corning, NY, cat. 354248) for the first three passages. All PDCs were cultured in complete DMEM/F-12 media containing advanced DMEM/F-12 (Invitrogen, cat. 12634028), 4.9% defined fetal bovine serum, heat inactivated (HyClone Laboratories Inc., Logan, UT, cat. SH30070.03HI), 389 ng/mL hydrocortisone (Sigma-Aldrich, cat. H4001), 9.7 ng/mL human EGF recombinant protein (Invitrogen, cat. PHG0313), 23.4 microg/mL adenine (Sigma-Aldrich, cat. A2786), 97.3 U/mL penicillin-streptomycin (Invitrogen, cat. 15140122), 1.9 mM L-glutamine (Invitrogen, cat. 25030081), and 9.7 microM Y-27632 dihydrochloride (Tocris Bioscience, Bristol, United Kingdom, cat. 1254). The PDCs were cultured in complete DMEM/F12 media without 10 microM Y-27632 dihydrochloride for at least two passages prior to the screen. The established cell lines NCI-H1341 and […] were cultured in DMEM/F-12, HEPES (Invitrogen, cat. 11330032), 5% defined fetal bovine serum (HyClone Laboratories Inc., cat. SH30070.03), ITS premix universal culture supplement [insulin (5 microg/mL), transferrin (5 microg/mL), and selenious acid (5 ng/mL)] […]

[1] = second compound 0.1 µM, first compound 0.0316 µM
[2] = second compound 0.1 µM, first compound 0.1 µM
[3] = second compound 0.1 µM, first compound 0.316 µM
[4] = second compound 0.1 µM, first compound 1 µM
[5] = second compound 0.1 µM, first compound 3.16 µM
[6] = second compound 0.1 µM, first compound 10 µM
[7] = second compound 0.316 µM, first compound 0.0316 µM
[8] = second compound 0.316 µM, first compound 0.1 µM
[9] = second compound 0.316 µM, first compound 0.316 µM
[10] = second compound 0.316 µM, first compound 1 µM
[11] = second compound 0.316 µM, first compound 3.16 µM
[12] = second compound 0.316 µM, first compound 10 µM
[13] = second compound 1 µM, first compound 0.0316 µM
[14] = second compound 1 µM, first compound 0.1 µM
[15] = second compound 1 µM, first compound 0.316 µM
[16] = second compound 1 µM, first compound 1 µM
[17] = second compound 1 µM, first compound 3.16 µM
[18] = second compound 1 µM, first compound 10 µM
[19] = second compound 3.16 µM, first compound 0.0316 µM
[20] = second compound 3.16 µM, first compound 0.1 µM
[21] = second compound 3.16 µM, first compound 0.316 µM
[22] = second compound 3.16 µM, first compound 1 µM
[23] = second compound 3.16 µM, first compound 3.16 µM
[24] = second compound 3.16 µM, first compound 10 µM
[25] = second compound 10 µM, first compound 0.0316 µM
[26] = second compound 10 µM, first compound 0.1 µM
[27] = second compound 10 µM, first compound 0.316 µM
[28] = second compound 10 µM, first compound 1 µM
[29] = second compound 10 µM, first compound 3.16 µM
[30] = second compound 10 µM, first compound 10 µM

With `CCc1c2c(nc3ccc(O)cc13)-c1cc3c(c(=O)n1C2)COC(=O)[C@]3(O)CC` + CC(CO)NC(=O)c1cc(-c2ccc(Cl)cc2)nn(-c2cnn(C)c2)c1=O the IC50 (second compound 0.1 µM) was 207 nM, the IC50 (second compound 0.316 µM) was 158 nM and the IC50 (second compound 1 µM) was 182 nM. It also gave an IC50 (second compound 3.16 µM) of 193 nM, an IC50 (second compound 10 µM) of 194 nM and a viability, T/C (second compound 0.1 µM, first compound 0.000949 µM) of 87.1%. The viability, T/C (second compound 0.1 µM, first compound 0.003 µM) was 86.2%, the viability, T/C (second compound 0.1 µM, first compound 0.00949 µM) was 78.3% and the viability, T/C (second compound 0.1 µM, first compound 0.03 µM) was 76.7%. It also gave a viability, T/C (second compound 0.1 µM, first compound 0.0949 µM) of 65%, a viability, T/C (second compound 0.1 µM, first compound 0.3 µM) of 42.7% and a viability, T/C (second compound 0.316 µM, first compound 0.000949 µM) of 79.3%. The viability, T/C (second compound 0.316 µM, first compound 0.003 µM) was 88%, the viability, T/C (second compound 0.316 µM, first compound 0.00949 µM) was 82.3% and the viability, T/C (second compound 0.316 µM, first compound 0.03 µM) was 66.3%. It also gave a viability, T/C (second compound 0.316 µM, first compound 0.0949 µM) of 58.2%, a viability, T/C (second compound 0.316 µM, first compound 0.3 µM) of 42% and a viability, T/C (second compound 1 µM, first compound 0.000949 µM) of 81.6%. For the same compound, the viability, T/C (second compound 1 µM, first compound 0.003 µM) was 85%, the viability, T/C (second compound 1 µM, first compound 0.00949 µM) was 86.2% and the viability, T/C (second compound 1 µM, first compound 0.03 µM) was 72.5%. It also gave a viability, T/C (second compound 1 µM, first compound 0.0949 µM) of 59.1%, a viability, T/C (second compound 1 µM, first compound 0.3 µM) of 43.5% and a viability, T/C (second compound 3.16 µM, first compound 0.000949 µM) of 89.3%. For the same compound, the viability, T/C (second compound 3.16 µM, first compound 0.003 µM) was 94.5%, the viability, T/C (second compound 3.16 µM, first compound 0.00949 µM) was 89.9% and the viability, T/C (second compound 3.16 µM, first compound 0.03 µM) was 74.9%. The viability, T/C (second compound 3.16 µM, first compound 0.0949 µM) was 57.5%, the viability, T/C (second compound 3.16 µM, first compound 0.3 µM) was 45.5% and the viability, T/C (second compound 10 µM, first compound 0.000949 µM) was 82.5%. The viability, T/C (second compound 10 µM, first compound 0.003 µM) was 82.7%, the viability, T/C (second compound 10 µM, first compound 0.00949 µM) was 78.1% and the viability, T/C (second compound 10 µM, first compound 0.03 µM) was 73.3%. The viability, T/C (second compound 10 µM, first compound 0.0949 µM) was 64.8% and the viability, T/C (second compound 10 µM, first compound 0.3 µM) was 41.2%.

`Nc1ccn(C2OC(CO)C(O)C2(F)F)c(=O)n1` (stereo not given) + CC(CO)NC(=O)c1cc(-c2ccc(Cl)cc2)nn(-c2cnn(C)c2)c1=O gave an IC50 (second compound 0.1 µM) greater than 10000 nM, an IC50 (second compound 0.316 µM) of 9590 nM and an IC50 (second compound 1 µM) greater than 10000 nM. The IC50 (second compound 3.16 µM) was greater than 10000 nM, the IC50 (second compound 10 µM) was 770 nM and the viability, T/C [1] was 54.6%. It also gave a viability, T/C [2] of 58.7%, a viability, T/C [3] of 62.1% and a viability, T/C [4] of 54%. The viability, T/C [5] was 51.9%, the viability, T/C [6] was 52.4% and the viability, T/C [7] was 60.3%. It also gave a viability, T/C [8] of 63.5%, a viability, T/C [9] of 52.5% and a viability, T/C [10] of 52.3%. It also gave a viability, T/C [11] of 57.3%, a viability, T/C [12] of 47.9% and a viability, T/C [13] of 61.1%. It also gave a viability, T/C [14] of 70.3%, a viability, T/C [15] of 55.3% and a viability, T/C [16] of 50.5%. The viability, T/C [17] was 57.9%, the viability, T/C [18] was 50.4% and the viability, T/C [19] was 59.4%. It also gave a viability, T/C [20] of 61.8%, a viability, T/C [21] of 59.5% and a viability, T/C [22] of 54.5%. The viability, T/C [23] was 53.6%, the viability, T/C [24] was 58.5% and the viability, T/C [25] was 55.1%. The viability, T/C [26] was 60.6%, the viability, T/C [27] was 47.7% and the viability, T/C [28] was 44.6%. For the same compound, the viability, T/C [29] was 51.5% and the viability, T/C [30] was 49.1%.

With `O=C(c1cc(Cc2n[nH]c(=O)c3ccccc23)ccc1F)N1CCN(C(=O)C2CC2)CC1` + CC(CO)NC(=O)c1cc(-c2ccc(Cl)cc2)nn(-c2cnn(C)c2)c1=O the IC50 (second compound 0.1 µM) was greater than 10000 nM, the IC50 (second compound 0.316 µM) was greater than 10000 nM and the IC50 (second compound 1 µM) was greater than 10000 nM. It also gave an IC50 (second compound 3.16 µM) greater than 10000 nM, an IC50 (second compound 10 µM) greater than 10000 nM and a viability, T/C [1] of 113%. The viability, T/C [2] was 112%, the viability, T/C [3] was 109% and the viability, T/C [4] was 104%. For the same compound, the viability, T/C [5] was 96.3%, the viability, T/C [6] was 93.5% and the viability, T/C [7] was 110%. The viability, T/C [8] was 115%, the viability, T/C [9] was 114% and the viability, T/C [10] was 104%. It also gave a viability, T/C [11] of 98.9%, a viability, T/C [12] of 89.7% and a viability, T/C [13] of 106%. For the same compound, the viability, T/C [14] was 113%, the viability, T/C [15] was 121% and the viability, T/C [16] was 108%. It also gave a viability, T/C [17] of 110%, a viability, T/C [18] of 94.7% and a viability, T/C [19] of 122%. It also gave a viability, T/C [20] of 124%, a viability, T/C [21] of 126% and a viability, T/C [22] of 105%. It also gave a viability, T/C [23] of 106%, a viability, T/C [24] of 88.5% and a viability, T/C [25] of 96.2%. For the same compound, the viability, T/C [26] was 107%, the viability, T/C [27] was 112% and the viability, T/C [28] was 101%. For the same compound, the viability, T/C [29] was 99.9% and the viability, T/C [30] was 86.9%.
